The text below walks through data of patent publication US20250026741A1, “INHIBITORS OF THE ONCOGENIC SHP2 PHOSPHATASE AND USES THEREOF” (Sanford Burnham Prebys Medical Discovery Institute, priority 2021, published 2025).

Assay [1] relates to MOLM-13-Cas9-mCherry cells with SHP2 KO. The assay is described as follows: SHP2 CRISPR-Cas9 knockout inhibitor selectivity assay (cell viability). The settings on record: MOLM-13-Cas9-mCherry SHP2 KO cells, 72 h. The format is cell-based. The protocol:
(§1) Finally, we evaluated the selectivity of our top two compounds, #01 and #02, on MOLM-13 AML cells in which SHP2 was depleted using CRISPR-Cas9 knock-out (KO). High-efficiency Cas9-editing MOLM-13 cells were generated by transducingMOLM-13 cells with a Cas9 lentiviral construct. Stable clones were tested for editing efficiency by performing TIDE analysis (45), and these MOLM13-Cas9 cells were transduced with a lentiviral construct containing an AAVS1 single guide RNA (sgRNA) and an mCherry reporter for bulk-sorting of cells with successful AAVS1 editing. SHP2 KO was achieved by transducing MOLM-13-Cas9-mCherry cells with a lentivirus containing SHP2 dual sgRNAs, resulting in ˜80% reduction of SHP2 protein levels (FIG. 3G). #01, #02, and the SHP2 allosteric inhibitor SHP099 were tested in parallel on regular MOLM-13 cells (expressing WT SHP2) and MOLM-13-Cas9-mCherry cells with SHP2 KO. Cells were treated with inhibitors at various concentrations (ranging from […] to 58 nM) or vehicle control (DMSO) for 72 h, before cell viability was assessed.
High-efficiency Cas9-editing MOLM-13 cells were generated by transducing MOLM-13 cells with the pLenti-Cas9-blasticidin construct (Addgene plasmid #52962) and selecting single stable clones using flow-sorting. Clones were then tested for editing efficiency by performing TIDE analysis (45). These MOLM13-Cas9 cells were then transduced with a lentiviral construct containing an AAVS sgRNA and an mCherry reporter out of frame and downstream of an AAVS sgRNA targeting site. […]
For SHP2 KO, dual sgRNAs targeting SHP2 were cloned in the pLentiGuide puro vector (Addgene plasmid #52963) using a published protocol (50). […] SHP2 KO was evaluated by immunoblotting. […] For SHP2 KO, MOLM-13-Cas9-mCherry cells were seeded in nontreated 6-well-plates ([…] in 2.5 mL), with cell numbers determined by trypan blue using the Countess Cell counter (Thermo Scientific). […] Cell viability was assessed using the ATP-depletion assay CellTiter-Glo® (Promega) as described above, and data were analyzed using GraphPad Prism software.

The subject of assay [2] is MOLM-13 AML cells (expressing WT SHP2). The assay is described as follows: Cell viability assay (CellTiter-Glo), MOLM-13. The format is cell-based. The settings on record: Homo sapiens, MOLM-13, 72 h, regular MOLM-13 cells, CRISPR comparison experiment. On the procedure: Next, we performed an 11-day colony formation assay with TNBC cells treated with #02 or SHP099 at 5, 10, or 20 μM (FIG. 3D).
as §1, with “SHP2 KO was achieved by transducing MOLM-13-Cas9-mCherry cells with a lentivirus containing SHP2 dual sgRNAs, resulting in ˜80% reduction of SHP2 protein levels (FIG. 3G). #01, #02, and the SHP2 allosteric inhibitor SHP099 were tested in parallel on regular MOLM-13 cells (expressing WT SHP2) and MOLM-13-Cas9-mCherry cells with SHP2 KO.” left out
Viability of AML, esophageal carcinoma, and TF-1 cells was assessed using the ATP-depletion assay CellTiter-Glo® (Promega). Cells were harvested at 1×10^6/mL to 2×10^6 cells/mL with cell numbers determined by trypan blue using the Countess Cell counter (Thermo Scientific) and resuspended in culture media. […] Luminescence was read on a Tecan Spark® Multimode Microplate Reader and data analyzed using Graph Pad Prism software. […]
A general note: Cellular ATP, detected with luciferase, serves as a proxy for viable cell number.

Assay [3] addresses SHP2-E76K (Homo sapiens (Human), UniProt Q06124, E76K). Briefly: Michaelis-Menten kinetics and mode of inhibition. The format is biochemical. On the procedure:
Using nonlinear regression, initial rates at various inhibitor and substrate concentrations were fitted to the Michaelis-Menten equations for competitive, noncompetitive, uncompetitive, and mixed inhibition. Fitting models were then compared using Akaike's Information Criterion (AIC), and inhibition mode probabilities were calculated from the differences between the corresponding second-order corrected AIC scores.
#02 was tested with SHP2-E76K using a similar assay format as described above. #02 or vehicle (DMSO) were spotted in triplicate into a black Greiner FLUOTRAC™ 200 384-well microplate (#781076, Greiner) using an Echo 555 Liquid Handler (Labcyte, Inc., San Jose, CA). SHP2-E76K working solution was prepared and dispensed as described above and incubated with inhibitor for 20 min at RT. DiFMUP working solutions at 5×final concentration were prepared in 50 mM Bis-Tris pH 6.0, 50 mMNaCl, and 0.01% Tween 20. […] Fluorescence intensity was measured in kinetic mode as described above. The initial rates were determined from the linear progression curves of each SHP2-E76K reaction. […] For a comparison of the fitting results, the second-order corrected Akaike's Information Criterion (AICc) was calculated using equation 1, where N is the number of data points, SS the absolute sum of squares, and K the number of parameters fit by nonlinear regression plus 1.

The structures appear in SMILES notation.

Chain of SHP2-E76K (Q06124 whole entry E76K): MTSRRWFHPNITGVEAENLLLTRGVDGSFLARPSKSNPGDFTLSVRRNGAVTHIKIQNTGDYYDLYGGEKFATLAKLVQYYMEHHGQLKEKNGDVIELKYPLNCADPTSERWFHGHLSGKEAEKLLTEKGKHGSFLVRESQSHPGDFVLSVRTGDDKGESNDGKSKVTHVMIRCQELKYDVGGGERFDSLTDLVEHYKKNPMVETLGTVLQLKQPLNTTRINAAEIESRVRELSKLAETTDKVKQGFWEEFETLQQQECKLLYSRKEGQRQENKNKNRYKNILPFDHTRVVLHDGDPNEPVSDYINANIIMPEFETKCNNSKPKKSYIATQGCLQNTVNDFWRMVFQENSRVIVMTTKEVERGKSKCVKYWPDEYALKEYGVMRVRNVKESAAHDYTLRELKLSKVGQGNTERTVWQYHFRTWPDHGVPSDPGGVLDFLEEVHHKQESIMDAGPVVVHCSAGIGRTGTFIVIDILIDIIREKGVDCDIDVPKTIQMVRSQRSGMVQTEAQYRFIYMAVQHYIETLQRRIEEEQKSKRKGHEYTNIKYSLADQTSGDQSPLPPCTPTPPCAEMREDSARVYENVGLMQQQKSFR

On to `Nc1ccc(NC(=O)c2cc(-c3ccc(/C=C4\Sc5ccccc5C4=O)o3)ccc2O)cc1` [#01, (Z)—N-(4-Aminophenyl)-2-hydroxy-5-(5-((3-oxobenzo[b]thiophen-2(3H)-ylidene)methyl)furan-2-yl)benzamide], for which, in assay [1], the “effect on viability of SHP2 KO cells” value is given as “either no effect, or a greatly reduced effect”.
Regarding `O=C(Nc1ccccc1)c1cc(-c2ccc(/C=C3\Sc4ccccc4C3=O)o2)ccc1O` [#02, (Z)-2-hydroxy-5-(5-((3-oxobenzo[b]thiophen-2(3H)-ylidene)methyl)furan-2-yl)-N-phenylbenzamide], the IC50 in assay [2] was 15 µM. In addition, the mode of inhibition result in assay [3] (AIC model comparison) was “noncompetitive or mixed inhibition mechanism”. The Ki in assay [3] (DiFMUP substrate, read-out: inhibition constant (Ki) for noncompetitive inhibition) stood at 1.8 µM. In addition, the “effect on viability of SHP2 KO cells” value in assay [1] is on record as “either no effect, or a greatly reduced effect”.

In general, IC50 refers to the midpoint of a concentration-inhibition curve. The low end stands for higher potency, the high end for lower potency. Broadly, the Ki is a dissociation constant, usually derived from enzyme kinetics or from competition with a known ligand.
